Experiments:
[1] = biological target: T1, rat olfactory CNG channel subunit 1 (Rattus norvegicus, UniProt Q00195); experiment: inside-out patch clamp, cGMP dose-response of current; assay type: cell-based
T1 sequence (Q00195 1-664): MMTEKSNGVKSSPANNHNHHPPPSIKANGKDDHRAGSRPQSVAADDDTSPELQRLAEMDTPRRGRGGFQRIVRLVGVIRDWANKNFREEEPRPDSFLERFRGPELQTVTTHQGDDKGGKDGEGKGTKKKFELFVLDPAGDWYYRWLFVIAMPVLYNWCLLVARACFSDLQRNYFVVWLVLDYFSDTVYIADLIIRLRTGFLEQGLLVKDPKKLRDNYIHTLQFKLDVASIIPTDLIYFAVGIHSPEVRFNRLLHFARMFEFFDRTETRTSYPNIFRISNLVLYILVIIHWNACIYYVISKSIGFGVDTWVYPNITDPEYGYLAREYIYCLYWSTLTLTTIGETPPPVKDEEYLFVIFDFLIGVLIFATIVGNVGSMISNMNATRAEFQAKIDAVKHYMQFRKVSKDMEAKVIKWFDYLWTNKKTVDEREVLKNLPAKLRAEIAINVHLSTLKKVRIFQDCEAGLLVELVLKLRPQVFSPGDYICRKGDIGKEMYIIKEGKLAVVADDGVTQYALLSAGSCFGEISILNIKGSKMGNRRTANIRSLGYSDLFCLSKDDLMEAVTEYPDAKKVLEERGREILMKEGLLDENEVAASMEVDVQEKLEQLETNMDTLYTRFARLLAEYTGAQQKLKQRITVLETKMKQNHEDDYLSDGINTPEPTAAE

[2] = biological target: T1, rat olfactory CNG channel subunit 1; experiment: inside-out patch clamp, oocytes, Michaelis-Menten fit of block; assay type: cell-based

SMILES | EC50 [1] [µM] | IC50 [2] [µM]
Nc1nc2c(ncn2[C@@H]2O[C@@H]3COP(=O)(O)O[C@H]3[C@H]2O)c(=O)[nH]1 [cGMP] | 2.1 ± 0.12 | –
CCCCNc1ccc(C(=O)OCCN(C)C)cc1 [tetracaine] | – | 170 ± 22
